In US11981666B2, “GLP-1 receptor agonist and composition and use thereof” (HANGZHOU ZHONGMEIHUADONG PHARMACEUTICAL CO., LTD., priority 2021, dated 2024):
Several values for one entry are separate records, joined by “and”; a condition that tells them apart may be missing. Equal values may be shown once. Read-outs that look alike come from different tables or passages of the source.

Assays:
[1] = Toxicological experiment in mice, 14-day repeated oral gavage (toxicokinetic study); type: in vivo, mouse; settings: ICR, mouse, po, 200 mg/kg, Day 14; for AUC(0-t): plasma
Protocol: (§1) Experimental method: 212 ICR mice (SPF grade), half male and half female. Animals in groups 1-5 were used for toxicity study, with 10 male and 10 female animals in each group; and animals in groups 6-9 were used for toxicokinetic study, with 14 male and 14 female animals in each group (2 of them were spare animals). […] Animals in Groups 1-9 were administered orally once a day for 14 consecutive days.

[2] = test system: ICR mice; experiment: as above; type: in vivo, mouse; settings: toxicokinetic study, female animals, 200 mg/kg oral once a day for 14 days
Protocol: as §1

[3] = target: T1, Human GLP-1R (Homo sapiens, UniProt P43220); experiment: GLP-1R agonistic activity assay (HTRF cAMP, 293A GFP-GLP-1R cells); type: cell-based; settings: cAMP level, geometric mean
T1 construct: expressed in transfected cells
T1 sequence (P43220 24-463): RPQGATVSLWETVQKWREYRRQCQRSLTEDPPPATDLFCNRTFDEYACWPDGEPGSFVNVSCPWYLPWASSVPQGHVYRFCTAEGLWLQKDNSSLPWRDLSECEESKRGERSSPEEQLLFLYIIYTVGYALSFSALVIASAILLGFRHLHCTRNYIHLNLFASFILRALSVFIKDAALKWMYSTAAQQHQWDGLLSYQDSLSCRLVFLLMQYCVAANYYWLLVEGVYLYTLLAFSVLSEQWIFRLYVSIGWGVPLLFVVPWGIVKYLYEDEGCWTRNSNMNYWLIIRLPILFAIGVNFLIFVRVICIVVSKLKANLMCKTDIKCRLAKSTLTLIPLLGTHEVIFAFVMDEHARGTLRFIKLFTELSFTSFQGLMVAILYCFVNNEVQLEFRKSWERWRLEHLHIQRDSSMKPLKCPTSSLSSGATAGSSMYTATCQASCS
Excerpt: The method was a competitive immunoassay.

[4] = target: T2, hERG potassium channels (Homo sapiens, UniProt Q12809); experiment: Test for inhibition of hERG potassium channels (whole-cell patch clamp, HEK-293-hERG cells); type: cell-based; settings: for hERG (IR): inhibition rate of tail current
T2 construct: expressed in transfected cells; host or cells: HEK-293-hERG cells
T2 sequence (Q12809 whole entry): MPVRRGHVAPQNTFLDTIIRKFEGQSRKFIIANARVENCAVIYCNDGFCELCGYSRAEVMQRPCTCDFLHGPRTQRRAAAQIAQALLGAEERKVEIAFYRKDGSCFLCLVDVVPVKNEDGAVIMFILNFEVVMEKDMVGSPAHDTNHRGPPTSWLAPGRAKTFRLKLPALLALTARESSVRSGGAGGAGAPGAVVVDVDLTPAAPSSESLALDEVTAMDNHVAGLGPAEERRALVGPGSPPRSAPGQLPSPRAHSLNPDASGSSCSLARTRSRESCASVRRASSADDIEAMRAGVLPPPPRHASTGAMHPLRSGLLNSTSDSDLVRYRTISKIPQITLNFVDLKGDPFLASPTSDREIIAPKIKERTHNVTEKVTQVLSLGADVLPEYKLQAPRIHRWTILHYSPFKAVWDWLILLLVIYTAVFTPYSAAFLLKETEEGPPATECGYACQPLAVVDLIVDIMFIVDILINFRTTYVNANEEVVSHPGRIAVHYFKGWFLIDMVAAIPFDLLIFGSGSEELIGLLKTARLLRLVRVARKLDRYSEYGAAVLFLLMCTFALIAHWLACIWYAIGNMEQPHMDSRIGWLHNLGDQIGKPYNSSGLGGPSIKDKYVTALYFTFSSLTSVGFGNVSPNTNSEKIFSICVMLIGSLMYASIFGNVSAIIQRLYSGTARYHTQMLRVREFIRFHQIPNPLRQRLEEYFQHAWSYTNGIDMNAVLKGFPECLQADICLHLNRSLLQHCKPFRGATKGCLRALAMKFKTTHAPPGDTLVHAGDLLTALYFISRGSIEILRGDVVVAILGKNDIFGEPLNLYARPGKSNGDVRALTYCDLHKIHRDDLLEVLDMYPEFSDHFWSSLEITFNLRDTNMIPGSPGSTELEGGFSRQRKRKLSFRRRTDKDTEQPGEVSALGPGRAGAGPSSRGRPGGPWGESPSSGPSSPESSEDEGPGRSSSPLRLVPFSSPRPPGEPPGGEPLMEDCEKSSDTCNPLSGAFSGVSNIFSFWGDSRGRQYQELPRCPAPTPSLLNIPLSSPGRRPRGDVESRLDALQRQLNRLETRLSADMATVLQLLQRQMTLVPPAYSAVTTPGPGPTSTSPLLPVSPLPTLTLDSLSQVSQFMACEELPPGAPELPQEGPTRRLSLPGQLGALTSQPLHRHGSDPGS
Excerpt: Positive control: Amitriptyline hydrochloride or Terfenadine

[5] = test system: ICR mice; experiment: Toxicological experiment in mice, 14-day repeated oral gavage (toxicity study); type: in vivo
Protocol: as §1

[6] = Pharmacokinetic experiment in cynomolgus monkeys; type: in vivo, cynomolgus monkey; settings: for Vd: read-out: Vss; for F: oral 20 mg/kg vs intravenous 2 mg/kg
Protocol: Experimental objective: To evaluate the pharmacokinetic profile of compound 1 and compare it with compound 20 (control compound).
Experimental method: 6 male Non-juvenile cynomolgus monkeys, 4˜5 kg, were purchased from Huazheng Experimental Animal Center. Group IV was administered intravenously at a dose of 2 mg/kg (5 mL/kg) (n=3), and the group PO was administered orally at a dose of 20 mg/kg (10 mL/kg) (n=3). Approximately 500 μL blood was collected from cephalic vein and saphenous vein at each experimental time point, and centrifuged at 2,000 g for 5 min (4° C.) within 15 min after sampling for subsequent analysis.

[7] = Metabolic stability in (human) liver microsomes; type: in vitro ADME; settings: pH 7.4, test concentration 1 μM
Protocol: 3×NADPH stock solution (6 mM, 5 mg/mL) was prepared by dissolving NADPH in the buffer solution; 4. 30 μL of 1.5 μM additive solution containing 0.75 mg/mL microsomal solution was distributed to the plates designated for different time points (0, 5, 15, 30, 45 minutes); 5. at 0 min, 150 μL of ACN containing IS was added to the wells of the plate, followed by addition of 15 μL of NADPH stock solution (6 mM, step 3); 6. all other plates were pre-incubated at 37° C. for 5 minutes; 7. adding 15 μL of NADPH stock solution to the plate to start the reaction and timing; 8. 150 μL of ACN containing IS was added to the wells of the corresponding plates to stop the reaction at 5 min, 15 min, 30 min and 45 min, respectively; 9. after quenching, the plates were shaken on a shaker for 10 minutes (600 rpm/min) and then centrifuged at 6000 rpm for 15 minutes; 10. 80 μL of supernatant was transferred from each well to a 96-well sample plate containing 140 μL water for LC/MS analysis.
Detection method: LC-MS/MS-11 (8050), internal standard: tolbutamide; MS conditions: positive ion ESI for testosterone and test compound, and negative ion ESI for tolbutamide; Mobile phases: mobile phase A is 0.1% FA in water, and mobile phase B is 0.1% FA in ACN; Column and specification: ACQUITY UPLC HSS T3 1.8 um 2.1*50 mm.

[8] = Caco-2 cell transport experiment; type: in vitro ADME; settings: human
Protocol: Caco-2 cells, 77th passage; HBSS, Lot: G210713; ACN+IS (tolbutamide 200 ng/mL); Caco-2 was inoculated on polyethylene (PET) in a 96-well Falcon plate at 2×10^5 cells/cm^2 until a confluent cell monolayer was formed on day 21-28. The culture medium was changed every 3-4 days. The test compound was diluted to a concentration of 10 uM with a transport buffer of 10 mM stock solution (HBSS without BSA) and applied to the apical side or the basolateral side of the cell monolayer. Incubation was carried out at 37° C., 5% CO2, and 95% relative humidity for 120 minutes, and the permeability of the test compound from the A to B direction or the B to A direction was determined in duplicate. The efflux ratio of each compound was determined. Test and reference compounds were quantitated by LC-MS/MS analysis based on the analyte/IS peak area ratio. […] [table]

[9] = intravenous 2 mg/kg, male, individual animals #1, #2, #3, 2 mg/kg
[10] = male, cynomolgus monkey, plasma, iv, 2 mg/kg, intravenous 2 mg/kg, Mean (n=3)
[11] = male, cynomolgus monkey, plasma, iv, 2 mg/kg, intravenous 2 mg/kg, individual animals #1, #2, #3
[12] = male, cynomolgus monkey, plasma, po, 20 mg/kg, oral 20 mg/kg, Mean (n=3)
[13] = oral 20 mg/kg, male, individual animals #4, #5, #6, 20 mg/kg

O=C(O)c1ccc2nc(CN3CCC(c4cccc(OCc5ccc(C6COC6)cc5F)n4)CC3)n(C[C@@H]3CCO3)c2c1 [Compound 1, (S)-2-((4-(6-((2-fluoro-4-(oxetan-3-yl)benzyl)oxy)pyridin-2-yl)piperidin-1-yl)methyl)-1-(oxetan-2-ylmethyl)-1H-benzo[d]imidazole-6-carboxylic acid] gave a Cmax ([1]; plasma of female animals) of 117 µg/mL, a Cmax ([1]; plasma of male animals) of 81 µg/mL and an AUC(0-t) ([1]; female, plasma of female animals, read-out: AUC(0-t) (second value listed)) of 271 µg·h/mL. For the same compound, the AUC(0-t) ([1]; female, plasma of female animals, read-out: AUC(0-t), the systemic exposure (first value listed)) was 291 µg·h/mL, the AUC(0-t) ([1]; male, plasma of male animals, read-out: AUC(0-t) (second value listed)) was 200 µg·h/mL and the AUC(0-t) ([1]; male, plasma of male animals, read-out: AUC(0-t), the systemic exposure (first value listed)) was 218 µg·h/mL. For the same compound, the animals found dead [2] was 1/14, the EC50 [3] was 30 pM and the IC50 [4] was 15.9 µM. The “hERG inhibitory activity (conclusion)” value [4] was “Did not Exhibit hERG Inhibitory Activity”, the “hERG (IR)” value ([4]; 1 μM) was 3.75% (1 μM) and the “hERG (IR)” value ([4]; 10 μM) was 40.7 (10 μM) %. The “non-toxic response dose level” value ([5]; ICR mice, gavage once a day for 14 consecutive days) was 200 mg/kg, the “toxicological effects on experimental animals (conclusion)” value ([5]; at the studied dose (200 mg/kg)) was “no significant toxicological effects” and the “biochemical analysis of serum” value ([5]; compared to vehicle control) was “no significant toxicological changes”. For the same compound, the clinical observation ([5]; toxicity study, 100 mg/kg, presumed not related to the test compound) was “occasionally showed abnormal gait, decreased activity, piloerection and traumatic abnormalities”, the “pharmacokinetic profile, orally administered (conclusion)” value ([6]; compared with control compound 20) was “significantly better than that of the control compound 20” and the AUCINF [6, 9] was 14.9 hr * μM and 13.0 hr * μM and 8749 hr * ng/ml and 7622 hr * ng/ml. The AUClast [6, 9] was 14.9 hr * μM and 13.0 hr * μM and 15215 hr * ng/ml and 8739 hr * ng/ml and 7607 hr * ng/ml, the CL [6, 9] was 2.19 mL/min/kg and 3.81 mL/min/kg and 4.37 mL/min/kg and 2.18 mL/min/kg and 3.82 mL/min/kg and the MRTINF [6, 9] was 0.247 h and 0.242 h. The T1/2 [6, 9] was 1.46 h and 1.50 h, the Vss [6, 9] was 0.0564 L/kg and 0.0635 L/kg and the AUC(0-inf) [6, 10] was 18 µM·h and 10500 ng·h/mL. The AUC(0-t) [6, 10] was 17.9 µM·h and 10500 ng·h/mL, the MRT inf [6, 10] was 0.292 h and the clearance [6, 10] was 3.46 mL/min/kg. The half-life [6, 10] was 1.39 h, the AUC(0-inf) [6, 11] was 26 µM·h and 15200 ng·h/mL and the AUC(0-t) [6, 11] was 26 µM·h. The MRT inf [6, 11] was 0.387 h, the half-life [6, 11] was 1.23 h and the Vd ([6]; male, cynomolgus monkey, plasma, iv, 2 mg/kg, intravenous 2 mg/kg, male, Mean (n=3)) was 0.0569 L/kg. For the same compound, the Vd ([6]; male, cynomolgus monkey, plasma, iv, 2 mg/kg, intravenous 2 mg/kg, male, individual animals #1, #2, #3) was 0.0508 L/kg, the AUC(0-inf) [6, 12] was 61.8 µM·h and 36200 ng·h/mL and the AUC(0-t) [6, 12] was 34500 ng·h/mL and 58.9 µM·h. The MRT inf [6, 12] was 6.71 h, the half-life [6, 12] was 5.32 h and the Cmax ([6]; male, cynomolgus monkey, plasma, po, 20 mg/kg, oral 20 mg/kg, male, Mean (n=3), read-out: Cmax) was 12700 ng/mL and 21.6 µM. For the same compound, the Tmax ([6]; male, cynomolgus monkey, plasma, po, 20 mg/kg, oral 20 mg/kg, male, Mean (n=3), read-out: Tmax) was 1.67 h, the Tmax ([6]; male, cynomolgus monkey, plasma, po, 20 mg/kg, oral 20 mg/kg, male, individual animals #4, #5, #6, read-out: Tmax) was 2 h and the “oral bioavailability (conclusion)” value ([6]; oral 20 mg/kg) was “high oral bioavailability”. For the same compound, the F ([6]; male, Mean (n=3)) was 32.8%, the F ([6]; male, individual animals #4, #5, #6) was 40.5% and 16.2% and 41.8% and the AUCINF [6, 13] was 72.8 hr * μM and 37.3 hr * μM and 75.2 hr * μM and 42676 hr * ng/ml and 21853 hr * ng/ml and 44083 hr * ng/ml. The AUClast [6, 13] was 72.6 hr * μM and 29.0 hr * μM and 75.1 hr * μM and 42563 hr * ng/ml and 17014 hr * ng/ml and 44038 hr * ng/ml, the Cmax [6, 13] was 12500 ng/mL and 2270 ng/mL and 23200 ng/mL and the MRTINF [6, 13] was 3.15 h and 14.5 h and 2.47 h. For the same compound, the T1/2 [6, 13] was 3.03 h and 10.4 h and 2.52 h, the Tmax [6, 13] was 1.00 h and the half-life at 1 μM [7] was 2.17 h. It also gave an efflux ratio at 120 min, 10 uM ([8]; Papp(BA)/Papp(AB)) of 5.26, a Papp A→B at 120 min, 10 uM ([8]; apical to basolateral, 10 uM, 120 minutes) of 3.14 ×10⁻⁶ cm/s and a Papp B→A at 120 min, 10 uM ([8]; basolateral to apical, 10 uM, 120 minutes) of 16.5 ×10⁻⁶ cm/s.
